Target: T1, CETP (Homo sapiens, UniProt P11597)
T1 sequence (P11597 18-493): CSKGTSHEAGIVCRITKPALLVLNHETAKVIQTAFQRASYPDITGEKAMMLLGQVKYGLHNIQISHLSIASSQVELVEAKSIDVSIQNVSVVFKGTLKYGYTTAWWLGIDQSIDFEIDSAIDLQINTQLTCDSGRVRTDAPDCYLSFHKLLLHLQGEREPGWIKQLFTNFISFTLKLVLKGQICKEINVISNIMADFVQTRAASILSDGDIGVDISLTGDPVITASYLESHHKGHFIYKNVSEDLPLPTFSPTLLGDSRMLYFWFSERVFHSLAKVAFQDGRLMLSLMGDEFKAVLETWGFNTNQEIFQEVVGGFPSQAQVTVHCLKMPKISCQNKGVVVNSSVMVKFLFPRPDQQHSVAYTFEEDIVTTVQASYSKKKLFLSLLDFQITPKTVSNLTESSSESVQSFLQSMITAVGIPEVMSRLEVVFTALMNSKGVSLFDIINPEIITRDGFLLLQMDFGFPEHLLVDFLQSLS
Assay: CETP inhibition, buffer assay system (SPA, radiolabeled cholesteryl ester transfer from HDL to LDL)
Assay type: biochemical
Conditions: partially purified CETP, selected compounds, read-out: 1C50
Description: Activity of CETP inhibitors was determined using a buffer assay system. Partially purified CETP transferred radiolabeled cholesteryl ester from HDL donor particles to biotin-labeled LDL acceptor particles. The reaction was stopped by addition of streptavidin-coupled scintillation proximity assay (SPA) beads. These beads captured the biotinylated acceptor particles and transferred radioactivity was measured. The assay system was purchased and performed according to manufacturer's recommendations (Amersham Biosciences). Inhibitory activity of compounds was determined as percentage of positive control activity containing CETP together with donor and acceptor particles. Serial dilution of compounds was performed in order to determine the IC50 values.

IC50 [nM] | SMILES
539 | CC(C)CCN(Cc1ccc(C(C)(C)C)cc1)C(=O)c1cccc2cc[nH]c12 [Compound 1, 1H-Indole-7-carboxylic acid (4-tert-butyl-benzyl)-(3-methyl-butyl)-amide]
58 | CC(C)(C)c1ccc(CN(CCc2ccc(F)cc2)C(=O)c2cccc3c2NCC3)cc1 [Compound 76, 2,3-Dihydro-1H-indole-7-carboxylic acid (4-tert-butyl-benzyl)-[2-(4-fluoro-phenyl)-ethyl]-amide]
202 | CC(C)(C)c1ccc(CN(CCOc2ccc(F)cc2)C(=O)c2cccc3cc[nH]c23)cc1 [Compound 90, 1H-Indole-7-carboxylic acid (4-tert-butyl-benzyl)-[2-(4-fluoro-phenoxy)-ethyl]-amide]
